# Assay results published in patent US20070203244A1, “INHIBITORS OF MEMBRANE TYPE-1 MATRIX METALLOPROTEINASE FOR THE TREATMENT OF INSULIN-DEPENDENT DIABETES MELLITUS” (priority 2006, published 2007).
# T1: MMP-2 (Homo sapiens, UniProt P08253)
# T1 sequence (P08253 110-660): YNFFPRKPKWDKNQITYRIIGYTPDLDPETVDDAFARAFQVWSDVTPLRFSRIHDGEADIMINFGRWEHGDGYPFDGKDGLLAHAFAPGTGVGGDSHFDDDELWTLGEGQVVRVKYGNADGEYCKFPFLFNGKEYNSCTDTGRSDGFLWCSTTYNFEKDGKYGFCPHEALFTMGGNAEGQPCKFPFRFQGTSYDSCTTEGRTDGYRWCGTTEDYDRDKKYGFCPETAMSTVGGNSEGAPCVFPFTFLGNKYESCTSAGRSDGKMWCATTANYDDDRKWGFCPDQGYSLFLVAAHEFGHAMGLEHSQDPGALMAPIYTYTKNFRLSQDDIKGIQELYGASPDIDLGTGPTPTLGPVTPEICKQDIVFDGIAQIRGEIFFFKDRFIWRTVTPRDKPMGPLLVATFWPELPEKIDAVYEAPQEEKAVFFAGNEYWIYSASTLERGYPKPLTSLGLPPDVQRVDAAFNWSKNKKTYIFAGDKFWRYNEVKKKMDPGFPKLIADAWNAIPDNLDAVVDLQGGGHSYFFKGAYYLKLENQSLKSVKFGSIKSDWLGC
# Tests used:
# IS-CD8+ T cells = assay: Homing of DiI-labeled IS-CD8+ T cells into the pancreatic islets of NOD mice; type: in vivo; details: Example 3: inhibitor i.p. before cells; 24 h; SB-3CT and EGCG at much higher concentrations than AG3340
# Protocol: Fluorescent Tracing and Morphometric Analysis—For trafficking studies, IS-CD8^+ T cells were incubated at 1×10^7 cells/ml for 30 min at 37° C. in the dark in complete Click's medium containing 5% fetal calf serum and 0.0075 mg/ml of the fluorescent dye 1,1′-didodecyl-3,3,3′,3′-tetramethylindocarbocyanine perchlorate (DiI; Molecular Probes, Eugene, Oreg.). After incubation, the cells were washed three times with phosphatebuffered saline to remove excess DiI. Labeled IS-CD8^+ cells (1×10^7 cells) were injected intravenously in 0.2 ml of phosphate-buffered saline into irradiated (725 rads, 24 h in advance) NOD mice. Mice were sacrificed 24 h after injection of DiI-labeled cells. The spleen and the pancreata were excised and fixed in 0.1 M periodate-lysine-paraformaldehyde phosphate buffer. The organs were next sucrose-saturated, freeze-molded in OCT compound (Sakura Finetek Inc., Torrance, Calif.), and freeze-sectioned. 7-μm-thick cryostat sections of the entire pancreas were prepared at 60-μm intervals using a Leica CM1900 cryotom. Distribution of DiI-labeled CD8^+ cells within the islets was examined using a fluorescent microscope. At least 100 individual islets per mouse (4-5 mice/experimental group) were examined. The characteristic morphology of the islets is easily identified on the cryosections. DiI-labeled cells were counted within the area relevant to each individual islet (see FIG. 3 for a representative image; the islet-relevant area is depicted by the solid white line, and the islet boundaries are shown by the white dotted line). The position of each IS-CD8^+ labeled cell was determined relative to the islet boundary. The labeled cells localized within the islet boundary were considered to be “inside,” whereas the labeled cells adjacent to the islet but outside of the islet boundary were considered to be “at the entrance.” This method has been described in substantial detail (Savinov, A. Y., et al. (2003), and Savinov, A. Y., et al. (2001), which are herein incorporated by reference in their entirety for their teaching of these methods).
# Fluorescent tracing and morphometric analysis—For trafficking studies, IS-CD8^+ T cells were incubated at 1×10^7 cells/ml for 30 min at 37° C. in the dark in the complete Click's medium containing 5% FCS and 0.0075 mg/ml of fluorescent dye 1,1′-didodecyl-3,3,3′,3′-tetramethylindocarbocyanine perchlorate (DiI; Molecular Probes). After incubation, the cells were washed three times with PBS to remove excess DiI. Labeled IS-CD8^+ cells (1×10^7 cells) were intravenously injected in 0.2 ml of PBS into irradiated (725 Rad, 24 h in advance) NOD mice. Mice were sacrificed 24 h after injection of DiI-labeled cells. […] In 24 h, the spleen and the pancreata were excised and fixed in 0.1 M periodate-lysine-paraformaldehyde phosphate buffer. The organs were next sucrose-saturated, freeze-molded in OCT compound (Sakura Finetek Inc.) and freeze-sectioned. 7-μm-thick cryostat sections of the entire pancreas were prepared at the 60 μm intervals using a Leica CM1900 cryotom. Distribution of DiI-labeled CD8^+ cells within the islets was examined using a fluorescent microscope. At least 100 individual islets per mouse, 4-5 mice per each experimental group, were examined. The characteristic morphology of the islets is easily identified on the cryosections. DiI-labeled cells were counted within the area relevant to each individual islet. The position of each IS-CD8^+ labeled cell was determined relative to the islet boundary. […]
# NOD mice = assay: Adoptively transferred diabetes in NOD mice (IS-CD8+ cells); type: in vivo; details: Example 3: i.p. 30 min prior to cells, then every other day; inhibitor diluted to 4 mg/ml
# Protocol: IS-CD8^+ cells were labeled with DiI and then injected in NOD mice. In 24 h, the labeled cells with their intra-islet location were counted in the cryostat sections of the entire pancreas. […] IS-CD8^+ cells were injected in NOD mice. […] PBS containing […] DMSO was used as a vehicle control. The onset of diabetes was monitored daily by measuring urine glucose levels with the Diastix reagent strips. Mice with urine glucose levels of ≧2000 mg/dl for 3 consecutive days were considered diabetic. * and **, p=0.02 and p=0.015 by Fisher's test, respectively.
# Mice were monitored for 21 days. […] The onset of diabetes was identified by assessing urine glucose levels with Diastix® strips (Bayer). Mice with urine glucose levels of >2000 mg/dl for 3 consecutive days were considered diabetic. […] The level of glucose in the urine closely follows that in the blood (Traisman, H. S., and Greenwood, R. D. (1973)). The measurement of glucose in urine is a widely accepted method to follow the development of diabetes in NOD mice (Pomerleau, D. P., et al. (2005)).
# MT1-MMP = target: T2, MT1-MMP (Mus musculus, UniProt P53690); assay: MT1-MMP-dependent MMP-2 activation in adherent IS-CD8+ cells, gelatin zymography; type: cell-based, NOD mouse; design: inhibition of MMP-2 activation: dose or concentration left out as unconfirmed
# T2 construct: Endogenous MT1-MMP is latent in non-adherent IS-CD8^+ cells; endogenous in cells; host or cells: IS-CD8+ T cells (TGNFC8 clone, NOD mouse), adherent to gelatin
# Protocol: MT1-MMP-dependent MMP-2 Activation and Gelatin Zymography—IS-CD8^+ cells (1×10^6) were either allowed to adhere for 4 h in serum-free unsupplemented Click's medium to plastic coated with 2% gelatin or kept in solution. Under these experimental conditions, the vast majority of cells became attached to gelatin. In 4 h, media samples (30 μl each) were withdrawn and analyzed by gelatin zymography (Deryugina, E. I., et al. (2001)) to identify the proteolytic activity and the activation status of MMP-2 naturally synthesized by IS-CD8^+ cells. Where indicated, cells were supplemented with external purified pro-MMP-2 (20 ng). Pro-MMP-2 was isolated from a conditioned medium of p2AHT2A72 cells derived from an HT1080 fibrosarcoma cell line sequentially transfected with the E1A and MMP-2 cDNAs (Strongin, A. Y., et al. (1995)).
# MT1-MMP-dependent MMP-2 activation and gelatin zymography—IS-CD8^+ cells (1×10^6) were either allowed to adhere for 4 h in serum-free unsupplemented Click's medium to the plastic coated with 2% gelatin or kept in solution. In 18 h, media samples (30 μl each) were withdrawn and analyzed by gelatin zymography (Deryugina, E. I., et al. (2001)) to identify the proteolytic activity and the activation status of MMP-2 naturally synthesized by IS-CD8^+ cells. […] Pro-MMP-2 was isolated from a conditioned medium of p2AHT2A72 cells derived from an HT1080 fibrosarcoma cell line sequentially transfected with the E1A and MMP-2 cDNAs (Strongin, A. Y., et al. (1995)).
# [1] = system: CD44 shedding in IS-CD8+ cells; assay: CD44 shedding in adherent IS-CD8+ cells, Western blotting; type: cell-based, NOD mouse
# Protocol: Western Blotting—IS-CD8^+ cells were surface biotinylated for 1 h at 4° C. with 0.1 mg/ml sulfo-NHS-LC-biotin (Pierce, Rockford, Ill.). Following washes to remove biotin, cells were co-incubated for 2 h with MT1-MMP-CAT in serum-free, unsupplemented Click's medium. The cells were then lysed with 50 mM N-octyl-β-D-glucopyranoside in phosphate-buffered saline supplemented with 1 mM CaCl2, 1 mM MgCl2, and protease inhibitor mixture containing phenylmethylsulfonyl fluoride (1 mM) and aprotinin, pepstatin, and leupeptin (1 μg/ml each). Biotin-labeled CD44 was captured from the cell lysate and from the medium aliquots on streptavidin-agarose beads. The captured samples were examined by Western blotting with the CD44 (clone IM7.8.1) antibody to determine the released, soluble, CD44 ectodomain in the medium samples and the residual, membrane-anchored, cellular CD44 in the cell lysates.
# Western blotting—IS-CD8^+ cells were surface biotinylated for 1 hr at 4° C. with 0.1 mg/ml of sulfo-NES-LC-biotin (Pierce). Following washes to remove biotin, the labeled cells were allowed to adhere in serum-free medium to plastic coated with 2% type I collagen/gelatin for 4 h or were kept in suspension. Under these experimental conditions, the vast majority of the cells became attached to gelatin. […] The cells were then lysed with 50 mM N-octyl-β-D-glucopyranoside in PBS supplemented with 1 mM CaCl2, 1 mM MgCl2, and protease inhibitor cocktail containing phenylmethylsulfonyl fluoride (1 mM) and aprotinin, pepstatin, and leupeptin (1 μg/ml each). Biotin-labeled CD44 was captured from the cell lysate and from the medium aliquots on streptavidine-Agarose beads. The captured samples were examined by Western blotting with the CD44 (clone IM7.8.1) antibody to determine the released, soluble, CD44 ectodomain in the medium samples and the residual, membrane-anchored, cellular CD44 in the cell lysates.
# MMP-2 = target: T1, MMP-2; details: preclinical studies; cited from earlier work
# MMP-9 = MMP-9 (Homo sapiens, UniProt P14780); details: preclinical studies; cited from earlier work
# Chain of MMP-9 (P14780 94-707, species assumed): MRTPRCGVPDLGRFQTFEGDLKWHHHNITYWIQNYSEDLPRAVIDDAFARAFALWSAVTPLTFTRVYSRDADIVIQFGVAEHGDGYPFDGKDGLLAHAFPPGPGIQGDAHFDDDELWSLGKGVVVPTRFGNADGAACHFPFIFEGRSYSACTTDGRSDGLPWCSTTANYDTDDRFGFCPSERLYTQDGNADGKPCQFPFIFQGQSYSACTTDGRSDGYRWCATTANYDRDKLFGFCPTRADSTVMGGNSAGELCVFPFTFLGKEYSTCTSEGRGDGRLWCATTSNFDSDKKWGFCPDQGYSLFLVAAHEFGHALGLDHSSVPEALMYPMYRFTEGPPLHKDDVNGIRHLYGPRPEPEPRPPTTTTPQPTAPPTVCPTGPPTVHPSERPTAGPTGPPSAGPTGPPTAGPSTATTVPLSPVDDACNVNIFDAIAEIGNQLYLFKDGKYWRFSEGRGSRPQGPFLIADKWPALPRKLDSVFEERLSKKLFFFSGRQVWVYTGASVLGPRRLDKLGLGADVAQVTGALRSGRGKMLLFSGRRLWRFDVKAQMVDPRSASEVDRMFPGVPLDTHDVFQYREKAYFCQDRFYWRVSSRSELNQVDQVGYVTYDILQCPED
# [2] = human TIMP proteins; cited from earlier work
# [3] = cited from earlier work
molecule,measurement,setting,value
"O=C(O[C@@H]1Cc2c(O)cc(O)cc2O[C@@H]1c1cc(O)c(O)c(O)c1)c1cc(O)c(O)c(O)c1 [EGCG, (−)-epigallocatechin 3-gallate]",homing of IS-CD8+ cells inside the islets,IS-CD8+ T cells,did not affect
same,delay of the transferred diabetes onset,NOD mice,no delay
same,inhibition of MMP-2 activation,MT1-MMP; Example 3: EGCG,partial inhibition
same,effect on CD44 proteolysis,[1]; Example 3: EGCG 500 mM,without any significant effect
CNC(=O)[C@@H](NC(=O)[C@H](CC(C)C)NC(=O)[C@@H](S)CCN1C(=O)N(C)C(C)(C)C1=O)C(C)(C)C [BMS-275291],inhibitory activity against MMP-2,MMP-2,potent inhibitory activity
same,inhibitory activity against MMP-9,MMP-9,potent inhibitory activity
O=S(=O)(CC1CS1)c1ccc(Oc2ccccc2)cc1 (stereo not drawn) [SB-3CT],homing of IS-CD8+ cells inside the islets,IS-CD8+ T cells,did not affect
same,delay of the transferred diabetes onset,NOD mice,no delay
same,activation of MMP-2 in adherent cells,MT1-MMP; Example 3: inhibitors added for 18 h,no effect
same,shedding of CD44 in adherent cells,[1]; Example 3,no effect
TIMP-1: native tissue inhibitor of MMP; a poor inhibitor of MT1-MMP,activation of MMP-2 in adherent cells,"MT1-MMP; Example 2: AG3340 50 μM, TIMP-1 and TIMP-2 100 ng/ml, 18 h",no effect
same,shedding of CD44 in adherent cells,"[1]; Example 2: AG3340 50 μM, TIMP-1 and TIMP-2 100 ng/ml",minor but noticeable inhibition
same,isoelectric point,[2],8.00
COc1ccc(S(=O)(=O)N(Cc2cccnc2)[C@@H](C(=O)NO)C(C)C)cc1 [CGS-27023A],"plasma concentrations relative to in vitro IC50s for MMP-2,-3 and -9",[3]; clinically tolerable doses,severalfold greater
same,"time for which plasma concentrations above the in vitro IC50s for MMP-2,-3 and -9 were sustained after dosing",[3]; clinically tolerable doses,> 10 h
same,dose at which major toxic effects (cutaneous and musculoskeletal toxicity) were encountered,"[3]; oral, continuous dosing, 150 to 600 mg in divided doses",exceeding 300 mg twice a day
"TIMP-3: native tissue inhibitor of MMP, SEQ ID NO:4 (protein) MTPWLGLIVLLGSWSLGDWGAEACTCSPSHPQDAFCNSDIVIRAKVVGKKLVKEGPFGTLVYTIKQMKMYRGFTKMPHVQYIHTEASESLCGLKLEVNKYQYLLTGRVYDGKMYTGLCNFVERWDQLTLSQRKGLNYRYHLGCNCKIKSCYYLPCFVTSKNECLWTDMLSNFGYPGYQSKHYACIRQKGGYCSWYRGWAPPDKSIINATDP",isoelectric point,[2],9.04
"TIMP-4: native tissue inhibitor of MMP, 22 kDa, SEQ ID NO:6 (protein, UniProt Q99727 30-224, looked up) Metalloproteinase inhibitor 4: CSCAPAHPQQHICHSALVIRAKISSEKVVPASADPADTEKMLRYEIKQIKMFKGFEKVKDVQYIYTPFDSSLCGVKLEANSQKQYLLTGQVLSDGKVFIHLCNYIEPWEDLSLVQRESLNHHYHLNCGCQITTCYTVPCTISAPNECLWTDWLLERKLYGYQAQHYVCMKHVDGTCSWYRGHLPLRKEFVDIVQP",isoelectric point,[2],7.34
